Values quoted from earlier work as cited in patent publication US12133900B2, “Synthesis and composition of amino acid linking groups conjugated to compounds used for the targeted imaging of tumors” (Purdue Research Foundation, priority 2013, dated 2024).

Experiments:
[1] = system: malignant lesions in human ovarian cancer patients; conditions: intra-operative; cited from earlier work
[2] = instability of the thiourea bridge; cited from earlier work

Nc1nc2ncc(CNc3ccc(C(=O)NC(CCC(=O)NCCNC(=S)Nc4ccc(-c5c6ccc(=O)cc-6oc6cc(O)ccc56)c(C(=O)O)c4)C(=O)O)cc3)nc2c(=O)[nH]1 (stereo not drawn) [EC17, folate-ethelenediamine-fluorescein isothiocynate]
more malignant lesions removed with the dye than without it [1]: ~5 ×
pathology of resected fluorescent lesions [1]: confirmed by pathology to be malignant
shelf-life stability [2]: easily decomposes
